Assay results from US7160690B2, “Nitrate sensor” (Arete Associates, priority 2001, dated 2007).
Like-named read-outs stand apart in the source and are kept apart here.

Legend:
[1] = test system: nitrate reductase; details: read-out: Michaelis constant (Km) of nitrate reduction; nitrate concentration at which the reaction is half maximal; cited from earlier work
[2] = test system: molybdenum-molybdopterin (Mo-MPT) center of nitrate reductase; details: for lowest nitrate concentration at which quenching of the emission signal is observed: FIG. 8
Experimental: Instead, the biosensor method of this invention uses fluorescence detection to sense nitrate 30 levels.
Once the Mo-MPT 10 is obtained, its initial fluorescence signal is measured.
The quenched fluorescence (Q) is a function of the maximum possible quenching at an infinite nitrate concentration (Qmax) and the affinity of nitrate for its binding site (Kd) in the vicinity of its binding site, or Mo-MPT 10. Thus, it follows Q=(Q max [nitrate])/(Kd+[nitrate]) where: • Q is the quenched fluorescence; • Qmax is maximal quenching at infinite concentration of nitrate; and • Kd is nitrate affinity for the binding site. Quenching can also be considered in terms of: F=Fo−Q where: • F is the fluorescence in the presence of nitrate; • Fo is the fluorescence in the absence of nitrate; and • Q is the quenched fluorescence.
The data was used to calculate Qmax and Kd based on the above equations.
(§1) To further investigate the quenching of Mo-MPT 10 by nitrate 30, a comparison study was performed comparing quenching of Mo-MPT 10 versus FAD 14 by nitrate 30. […] The data line labeled 38 represents quenching of FAD 14, while the data line labeled 40 represents quenching of Mo-MPT 10.

[3] = test system: FAD; details: 0 to 20 ppm nitrate; FIG. 10, data line 38
Experimental: as §1

## O=[N+]([O-])O [nitrate]
[1]
  Km: 13 µM
[2]; 0 to 4 ppm nitrate, FIG. 10, data line 40
  type of fluorescence quenching of Mo-MPT by nitrate: static quenching
[2]; fluorescence at 440 nm, FIG. 9, exceeds unity, believed to be an experimental artifact
  Qmax (maximal quenching at infinite concentration of nitrate): 1.07
[2]; nitrate added at 0.3 ppm to 3.4 ppm
  lowest nitrate concentration at which quenching of the emission signal is observed: 0.3 ppm
[2]; read-out: Kd (nitrate affinity for the binding site, Mo-MPT), fluorescence at 440 nm, fit of Q=(Qmax[nitrate])/(Kd+[nitrate]), FIG. 9
  Kd: 20 µM
[2]; same as 0.3 ppm
  lowest nitrate concentration at which quenching of the emission signal is observed: 23 µmol
[3]
  type of fluorescence quenching of FAD by nitrate / interaction: no specific interaction
